Test results published in patent US9884046B1, “Method of treating lung cancer” (Macau University of Science and Technology, priority 2017, dated 2018).

Legend:
KRAS = KRAS (Homo sapiens, UniProt P01116); assay: Bio-layer interferometry, His-KRAS on Ni-NTA biosensors; format: binding; conditions: BLI
Protocol: The interaction between KRAS and compound 0375-0604 was determined by bio-layer interferometry using an Octet Red 96 instrument (FortéBio Inc.). Ni-NTA Biosensors tips (FortéBio, Inc., Menlo Park, Calif.) were prewetted with PBS to establish a baseline before immobilization. His-KRAS was then immobilized onto Ni-NTA Biosensors. The experiments comprised five steps: (1) baseline acquisition, (2) KRAS loading onto the sensor, (3) second baseline acquisition, (4) association of compound 0375-0604 for the measurement of kon, and (5) dissociation of compound 0375-0604 for the measurement of koff. Six concentrations of compound 0375-0604 were used for detection. The association and dissociation plot and kinetic constants were obtained with FortéBio data analysis software. Equilibrium dissociation constants (Kd) were calculated in the ratio of koff to kon.
Bio-layer interferometry assay (BLI), a label-free technology, was used to measure the biomolecular interaction between KRAS and compound 0375-0604. In this study, the His-labeled KRAS protein was immobilized on the Ni-NTA (NTA) Biosensors. […] Experimental data for association and dissociation are represented on the left and right side.

GTP-bound KRAS = assay: RAS-binding domain pull-down (RBD:PD) assay; format: cell-based; conditions: H358 cells, 24 h, 50 and 100 μM
Protocol: RAS activity was detected using the RAS Activation Assay Kit from Upstate-Millipore. The whole cell lysates were incubated with Glutathione S-transferase-[…]-binding domain (GST-RBD) and glutathione beads for 1 h. Agarose beads were pelleted by centrifugation and washed 3 times with Mg^2+ lysis buffer. Agarose beads were re-suspended in loading buffer. Samples were analyzed by the western blotting as previously described and blots probed using anti-KRAS antibody (sc-30, SANTA).
KRAS mutant cells (H358) were treated with compound 0375-0604 for 24 h. After 24 h treatment, cells were collected and determined by a RAS-binding domain pull-down (RBD:PD) assay and immunoblotting with a KRAS-specific antibody.

H358 cells [1] = assay: Cell cycle analysis by PI staining and flow cytometry; format: cell-based; conditions: H358 cells, 50, 100 μM, 24 h
Protocol: H358 cells were plated with 2.0×10^5 cells/well at a 6-well plate and cultured overnight for attachment. After treatment with compound 0375-0604 at 0, 50, 100 μM for 24 h, all cells were harvested by trypsin, and centrifuged at 1000 rpm, at room temperature for 5 min. Cells pellets were re-suspended in 70% ethanol at 4° C. for 30 min. Cells were centrifuged at 1000 rpm for 5 min to remove all the ethanol. Each cell pellet was re-suspended in 300 μL Propidium iodide (PI) staining solution at 37° C. for 30 min in the dark. The cells were then washed twice with phosphate-buffered saline (PBS). Finally, cells were re-suspended in 300 μL PBS and transferred to the flow cytometer (BD FACS Aria III).
H358 cells were treated with compound 0375-0604 at different concentrations (0, 50, 100 μM) for 24 h, and stained with Propidium iodide (PI). The samples were analyzed by flow cytometry.

H460 cells = assay: MTT cell viability assay, H460; format: cell-based; conditions: Homo sapiens, NCI-H460, H460 (KRAS Q61H)
Protocol: (§1) H2122, H460 and H358 cells were purchased from ATCC and cultivated with Roswell Park Memorial Institute (RPMI) 1640 medium supplemented with 10% fetal bovine serum (Gibco, Big Cabin, Oklahoma, Me., USA), 100 U/mL penicillin and 100 μg/mL streptomycin (Gibco, Big Cabin, Oklahoma, Me., USA). All the cells were cultivated at 37° C. with 5% CO2 incubator. Cells were seeded on a 96-well microplate with 3000, 4000 or 5000 cells/well, and were cultured overnight for cell adhesion. Different concentrations of compound 0375-0604 were added to the microplates, and the plates were incubated for 24, 48 or 72 h. Each dosage was repeated as triplicate. 10 μL MTT (5 mg/mL) solution was added to every well. After incubation for 4 h, 100 μL dimethyl sulfoxide (DMSO) was added to each well. After shaking for 15 min, the absorbance of the plate was measured at 570 nm (absorbance) and 650 nm (reference) by a microplate reader (Tecan, Morrisville, N.C., USA).
(§2) The cytotoxicity of compound 0375-0604 was determined by MTT assay. The effect of compound 0375-0604 on three NSCLC cell lines, H2122, H358 and H460 was examined. H2122, H358 and H460 are harboring KRAS-activating mutations. H2122 and H358 cells have mutant KRAS that includes an amino acid substitution from a glycine to a cysteine at codon or position 12 (i.e. mutant KRAS ^G12C). H460 cells have mutant KRAS that includes an amino acid substitution from a glutamine to a histidine at codon or position 61 (i.e. mutant KRAS Q61H).
(§3) Cells were incubated with compound 0375-0604 at different concentrations (0, 25, 50, 100 μM) for 24, 48, and 72 h. As shown in FIGS. 3A-3C, the cell viability of three NSCLC cell lines was decreased by the treatment of compound 0375-0604 in a dose-dependent and time-dependent manner.

H2122 cells = assay: MTT cell viability assay, H2122; format: cell-based; conditions: Homo sapiens, NCI-H2122, H2122 (KRAS G12C)
Protocol: as §1, §2, §3

H358 cells [2] = assay: MTT cell viability assay, H358; format: cell-based; conditions: Homo sapiens, NCI-H358, H358 (KRAS G12C)
Protocol: as §1, §2, §3

[3] = system: phosphorylation of CRAF (p-CRAF); assay: Western blot of KRAS downstream signaling; format: cell-based; conditions: H2122, H460 and H358 cells, 24, 48 and 72 h, versus untreated cells
Protocol: After treatment with compound 0375-0604 for 24 h, 48 h or 72 h, radioimmunoprecipitation assay (RIPA) lysis buffer which contains protease and phosphatase inhibitors, was added to extract the whole cell protein. Bio-Rad DC™ protein assay kit (Bio-Rad, Philadelphia, Pa., USA) was used to quantify the protein. 30 μg protein lysate were loaded and separated by 10% sodium dodecyl sulfate (SDS)-polyacrylamide gel electrophoresis and transferred to a nitrocellulose (NC) membrane. The membranes were incubated with the primary antibody (1:2000) and then with a fluorescence-conjugated secondary antibody (1:10000). Glyceraldehyde 3-phosphate dehydrogenase (GAPDH) was used as the loading control for normalization. The signal of the membranes was scanned with a LI-COR Odyssey Scanner (Belfast, Me., USA).
Untreated cells were used as control.

Chain of KRAS (P01116 1-188 isoform P01116-2): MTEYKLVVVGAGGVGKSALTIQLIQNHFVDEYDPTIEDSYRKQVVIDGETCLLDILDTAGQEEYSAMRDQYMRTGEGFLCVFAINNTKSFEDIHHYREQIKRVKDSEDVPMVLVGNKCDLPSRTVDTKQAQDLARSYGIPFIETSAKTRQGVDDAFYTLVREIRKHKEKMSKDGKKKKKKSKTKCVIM

koff (KRAS; 1.56-50 μM compound): 2.12E-01 S^−1
kon (KRAS; 1.56-50 μM compound): 1.83E+04 M^−1 S^−1
Kd (KRAS; calculated as ratio of koff to kon): 11.6 µM
level of GTP-bound KRAS (GTP-bound KRAS): inhibited
IC50 (H460 cells; 24 h): > 100 µM
IC50 (H460 cells; 48 h): 100 ± 13.3 µM
IC50 (H460 cells; 72 h): 66 ± 11.8 µM
IC50 (H2122 cells; 24 h): > 100 µM
IC50 (H2122 cells; 48 h): > 100 µM
IC50 (H2122 cells; 72 h): 39.6 ± 3.09 µM
IC50 (H358 cells [2]; 24 h): > 100 µM
IC50 (H358 cells [2]; 48 h): > 100 µM
IC50 (H358 cells [2]; 72 h): 63.8 ± 3.89 µM
Structure (SMILES): Nc1ccc(Sc2nc3ccccc3s2)c(Cl)c1 [compound 0375-0604]
percentage of cells in G0/G1 phase (H358 cells [1]): slightly decreased
percentage of cells in G2/M phase (H358 cells [1]): increased
level of phosphorylation of CRAF (p-CRAF) [3]: decreased
